For 86 compounds, melting point results are on record in a melting point compilation (Tetko et al.; mined from patent text by program, amines drawn as free bases though some values may be those of a salt).

The structures appear in SMILES notation.

`O=C1Cc2ccc(F)cc2Sc2cc(F)c(Cl)cc21` registered a melting point of 131 to 133 °C. As for `COC(=O)C(=Cc1ccc(F)c(Cl)c1)N=[N+]=[N-]`, the figure is 72 to 74 °C. Turning to `N#Cc1ccc(C(F)(F)F)cc1NN=Nc1ccccc1`, the melting point is 139 to 141 °C.

In turn, `COC(=O)C1=C(C)NC(C)=C(C(=O)OCCN2CCN(c3ccc(F)cc3)CC2)C1c1cccc(Cl)c1` (stereo unspecified) yielded a melting point of 44 to 49 °C. In the case of `Cc1nc(C(N)=O)n(-c2ccc(Cl)c(Cl)c2)c1Cl` it was 144 to 145 °C; in that of `O=C1CC[C@@H](C(=O)N[C@@H](Cc2c[nH]cn2)C(=O)N[C@@H](Cc2c[nH]c3ccccc23)C(=O)OCc2ccccc2)N1`, 250 to 252 °C; in that of `NC1CCN(c2ccc3c4c(cccc24)C(=O)N(O)C3=O)C1` (stereo unspecified), 238 to 242 °C. As for `CN(CCc1ccccc1)S(=O)(=O)CC(=O)NO`, the figure is 149 to 151 °C; as for `CC1(C)Cc2sccc2C=[N+]1[O-]`, 130 to 131 °C; as for `CC(=O)Nc1cccc2c1C(=O)c1c-2n[nH]c1-c1ccc(O)cc1`, over 300 °C. In the case of `CCOC(=O)c1csnc1-c1cccc([N+](=O)[O-])c1` it was 132 to 136 °C; in that of `CCOc1cc(C(CC(=O)OC)N2Cc3ccccc3C2=O)ccc1OC` (stereo unspecified), 78 to 80 °C. Compound `COc1cc(N2CCC(N3CCCN(C)CC3)CC2)ccc1Nc1ncc2ccc(-c3ccccc3OC)n2n1` registered a melting point of 69 to 76 °C. As for `Cc1nn(-c2ccc(F)cc2)c(C)c1C(=O)Nc1ccc(OCC(C)(C)C)c(C#N)c1`, the figure is 174 to 175 °C; as for `Cc1cc(-c2ccc(C(F)(F)F)cc2)nc2c(-c3nc(-c4ccc(S(N)(=O)=O)s4)no3)cnn12`, 276 °C. As for `CCOC(=O)c1nn(-c2ccc(N=[N+]=[N-])cc2)c(=O)c2c(N)scc12`, the figure is 169 to 170 °C; as for `O=C(CCl)OCCCCOC(=O)CCl`, 74 to 76.5 °C; as for `CC(C)(C)OC(=O)NCCNC(=O)c1cccc2c1c(C(=O)C(=O)NC1=CC(=O)OC1)cn2Cc1ccc(Cl)cc1`, 218 to 219 °C. As for `COc1cc2c(cc1Cl)CC(=O)NN=C2c1ccc(N)cc1`, the figure is 234 to 236 °C; as for `O=C(O)COCCc1ccc(Cl)cc1`, 75 to 77 °C; as for `N#Cc1ccc2nc(-c3ccc(Br)o3)cn2c1`, 212 to 214 °C. `CC1(C)CC(OC(=O)c2ccccc2)CC(C)(C)N1C#N` came in with a melting point of 150 to 152 °C. The compound `N#Cc1cnn(-c2ccc(C=O)cc2)n1` returned a melting point of 148 to 150 °C. In the case of `CC(=O)SCC(CC(C)C)C(=O)NCCCCCC(N)=O` (stereo unspecified) it was 64 to 80 °C.

On to `COc1ccc(CC(=O)NC(NC(=NC#N)Nc2cc(Cl)ccc2F)C(C)(C)C)cc1OC` (stereo unspecified), for which the melting point fell in the range of 187 to 188 °C.

Turning to `CC(=O)OCC1=C(C(=O)OC(c2ccccc2)c2ccccc2)N2C(=O)C(NC(=O)Cc3csc(-c4ncccc4O)n3)C2SC1` (stereo unspecified), the melting point lay in the range of 176 to 178 °C.

`CCOP(=O)(OCC)c1ccc(NC(=O)C2Cc3c(cccc3C(C)C)C(=O)CS2(=O)=O)cc1` (stereo unspecified) displayed a melting point of 229 to 230 °C. In the case of `CSc1nn2c(N)c3c(nc2c1S(=O)(=O)c1ccccc1)CCC3` it was over 230 °C; in that of `CCC1=Nc2cc(Cl)ccc2CC(c2sccc2C)N1C` (stereo unspecified), 94 to 96 °C; in that of `CO[C@]12C[C@@H](CN3CCC(O)(c4ccc(Cl)cc4)CC3)CN(C)[C@@H]1Cc1c[nH]c3cccc2c13`, 144 to 148 °C. As for `CC(C)N(C[C@H](O)[C@H](Cc1ccccc1)NC(=O)[C@H](CC(N)=O)NC(=O)c1ccccn1)NC(=O)OC(C)(C)C`, the figure is 101 to 108 °C. In the case of `CC1(O)CN(C(=O)c2cc(C(C)(C)C)c(O)c(C(C)(C)C)c2)C1` it was 148 to 153 °C; in that of `COc1ccc(C)cc1NC(=O)Nc1ccc(N2CCN(C(=O)OC(C)(C)C)C(C)C2)cc1` (stereo unspecified), 167 to 168 °C. As for `O=C(OCc1ccccc1)c1ccc2cc(-c3ccc(CCCO)c(C45CC6CC(CC(C6)C4)C5)c3)ccc2c1`, the melting point worked out at 176 °C. In the case of `CC(C)(C)OC(=O)N1CCn2c(c(C(=O)O)c(C#N)c2-c2ccccc2)C1` it was 212 to 215 °C; in that of `CN(C)C(=S)SC(C[N+](=O)[O-])c1ccco1` (stereo unspecified), 67 to 68 °C; in that of `C1=C(c2cccs2)CCC(N2CCN(c3ccccn3)CC2)C1` (stereo unspecified), 156 to 158 °C. In the case of `CC(=O)OCc1nc(-c2ccc3c(c2)OCO3)c2cc3c(cc2n1)OCO3` it was 144 to 147 °C; in that of `COC(=O)c1ccc(OCC(C)NCC(O)c2cccc(Cl)c2)cc1` (stereo unspecified), 99 to 101 °C. As for `Cc1sc(C(=O)OCc2ccccc2)cc1[N+](=O)[O-]`, the figure is 57 to 58 °C. Turning to `CC(=O)NCC1CC(c2ccc(-n3ccc(CO)c3)c(F)c2)=NO1` (single isomer, unassigned; (-)), the melting point is 162 to 164 °C. As for `COc1cc(N=Nc2ccc3[nH]nnc3c2)c(O)c2ccccc12`, the melting point was determined as 254 °C. As for `Cc1cc(C)nc([NH+]([O-])C(=O)Cc2ccsc2)c1` (stereo unspecified), the figure is 154 °C; as for `COc1ccc(Br)cc1C1C2CC3CC(C2)CC1C3` (stereo unspecified), 140 to 141 °C.

In the case of `Nc1cc(Cl)c(Cl)cc1-n1cccc1`, the melting point lay within 57 to 58 °C. As for `CCNc1ccc2[nH]cc(C3CCN(C)CC3)c2n1`, the figure is 132 to 134 °C. Turning to `CCCCc1nc2c(N)nc3ccccc3c2n1CCN1C(=N)NC2CSC(CCCCC(N)=O)C21` (stereo unspecified), the melting point was 95 to 96 °C.

In turn, `CCCOc1ccc(S(=O)(=O)C(C)C)cc1C(N)=O` displayed a melting point of 177 to 178 °C. In the case of `COc1ccc(Cn2c(=O)n(C3CCCCC3)c3cc(Cl)ccc32)cc1OC` it was 59 °C; in that of `C=CCNc1nc(C)c(C(=O)c2ccc(Cl)c([N+](=O)[O-])c2)s1`, 154 to 156 °C. In the case of `OCC1COC(Cn2cncn2)(c2ccc(Oc3ccccc3)cc2)O1` (stereo unspecified) it was 111 to 112 °C; in that of `COC(=O)CCCc1cc2nc(C(F)(F)F)ccc2n1S(=O)(=O)c1ccccc1`, 95 °C; in that of `CC(=O)Nc1ccc(-c2ccc(CC34CCCN3C(=O)N(c3cc(Cl)cc(Cl)c3)C4=O)cc2)cc1` (stereo unspecified), 124 °C.

Turning to `Cn1nc(Nc2cc(Cl)n[nH]c2=O)cc1CN1CCC1`, the melting point fell in the range of 140 to 141 °C. Compound `CCOC(=O)c1ccc(OCc2nc(-c3ccco3)oc2C)c(OC)c1` yielded a melting point of 133 to 134 °C. Compound `c1ccc(-c2cc3ccccc3n2-c2ccccc2)cc1` returned a melting point of 78 to 80 °C.

`CN(C)Cc1ncccc1OC1SCC(O)C(O)C1O` (stereo unspecified) yielded a melting point of 79 °C. As for `O=C(O)c1cc(-n2c(-c3ccc([N+](=O)[O-])cc3)cc3c2CCCC3)ccc1O`, the figure is 241 to 242 °C; as for `COC(=O)c1c(Cl)cc(C)nc1Oc1c(C)cc(C)cc1C`, 127 to 128 °C; as for `COC(=O)n1c(Cl)nc2c(C)cccc21`, 90 to 91 °C. As for `COc1ccc(C(NC(C)=O)C(=O)c2ccc(Cl)cc2)cc1` (stereo unspecified), the figure is 140 °C. In the case of `ON=Cc1ccc(Cl)c(I)c1`, the melting point lay within 97 to 99 °C.

`CC(Br)C(=O)Nc1ccc(Cl)cc1NC1CC1` (racemic) had a melting point of 130 °C. As for `c1ccc2c(c1)Oc1ccccc1-n1nnnc1-2`, the figure is 206 to 208 °C. In the case of `COc1cccc(OC)c1-c1ccc(C[C@H](NC(=O)c2c(Cl)ccc(Br)c2Cl)C(=O)O)cc1` it was 235 °C. Consider `CC(C)(C)c1cc(C=Cc2ccccc2NC(=O)NCc2ccccn2)cc(C(C)(C)C)c1O`, for which the melting point lay in the range of 207 to 210 °C. For the compound `CN(C)CCN(C(=O)OC(C)(C)C)C1=NCC(=O)N(C)c2ccccc21`, the melting point was under 35 °C.

The compound `CCN(CC)CCOc1ccc(Nc2ncc3c(n2)N(C)C(=O)N(c2ccccc2Br)C3)cc1` gave a melting point of 144 °C. In the case of `COC(=O)C=Cc1ccc(OC)c(OCc2nc(-c3ccccc3)oc2C)c1` it was 135 to 136 °C; in that of `O=C(O)c1c[nH]c2c1C(=O)CCC2`, 269 to 270 °C; in that of `CCCCCCCCCCCCCCOc1ccc(CC(CO)CC2(C)OCCO2)cc1` (stereo unspecified), 28 to 29 °C. `OCC1Cc2c(c(Cl)cc3c(-c4ccccc4F)noc23)O1` (stereo unspecified) came in with a melting point of 136 to 139 °C. In the case of `Nc1cc2cccc(F)c2oc1=O` it was 173 to 174 °C. In the case of `CSc1ccc2c(O)c(CS(C)(=O)=O)cnc2c1` it was 290 to 292 °C; in that of `CCC1N=C(c2ccccc2Cl)c2cc(CCC(=O)O)sc2-n2c(C)nnc21` (stereo unspecified), 218 to 220 °C. As for `COc1ccc2c(Cc3c(Cl)cncc3Cl)nncc2c1C#Cc1ccccc1`, the figure is 217 to 219 °C. On to `CN1C(=O)CC[C@]2(C)c3ccc(-c4ccc5c(c4)OCCO5)cc3CC[C@@H]12`, for which the melting point was in the range of 183 to 189 °C.

The compound `O=C(c1cccs1)c1cnn2c(-c3cccc(NC/C=C/c4ccc([N+](=O)[O-])cc4)c3)ccnc12` came in with a melting point of 163 to 166 °C. As for `O=c1c2cc(Br)ccc2c2cc3c(=O)c4cc(Br)ccc4c3cc12`, the figure is over 300 °C; as for `Oc1ccc(-c2cn(-c3ccncc3)c(-c3ccc(F)cc3)n2)cc1`, 230 to 231 °C; as for `CCCCC1=NC2(CCCC2)C(=O)N1Cc1ccc(-c2ccccc2S(=O)(=O)Nc2onc(C)c2C)c(OCC(C)C)c1`, 58 to 61 °C. In the case of `CS(=O)(=O)N1CCC[C@@H]1[C@H](CS(=O)(=O)c1ccc(Oc2ccc(OC(F)(F)F)cc2)cc1)N(O)C=O` it was 89.6 to 93 °C.

`CN(C(=O)c1ccc2nonc2c1)C1CCCCCC1` showed a melting point of 80 to 81 °C. As for `Cc1c(=O)o[n-][n+]1CCSC12CC3CC(CC(C3)C1)C2`, the figure is 92 to 93 °C.

`CC(=O)NNC(COCc1cc(C)cc(C)c1)C1c2ccccc2C=Cc2ccccc21` (stereo unspecified) displayed a melting point of 115 to 117 °C.

As to `CCn1c(C)c(C2(c3c(-c4ccc(OC)cc4)nc4sccn34)OC(=O)c3cccnc32)c2ccccc21` (stereo unspecified), the melting point lay within 115 to 118 °C.

A word on the melting point: it is the temperature of the solid-liquid transition.
